This is an account of results in patent US20190185479A1, “BICYCLIC NITROGENATED HETEROCYCLIC COMPOUND” (MITSUBISHI TANABE PHARMA CORPORATION, priority 2016, published 2019).

The target of one assay is T1, bovine PDE6 (Bos taurus, UniProt P11541+P23439).
T1 construct: PDE6 was purified and isolated from bovine retina (bovine PDE6); from tissue; host or cells: bovine retina
T1 sequence (P11541 2-856 limits assumed): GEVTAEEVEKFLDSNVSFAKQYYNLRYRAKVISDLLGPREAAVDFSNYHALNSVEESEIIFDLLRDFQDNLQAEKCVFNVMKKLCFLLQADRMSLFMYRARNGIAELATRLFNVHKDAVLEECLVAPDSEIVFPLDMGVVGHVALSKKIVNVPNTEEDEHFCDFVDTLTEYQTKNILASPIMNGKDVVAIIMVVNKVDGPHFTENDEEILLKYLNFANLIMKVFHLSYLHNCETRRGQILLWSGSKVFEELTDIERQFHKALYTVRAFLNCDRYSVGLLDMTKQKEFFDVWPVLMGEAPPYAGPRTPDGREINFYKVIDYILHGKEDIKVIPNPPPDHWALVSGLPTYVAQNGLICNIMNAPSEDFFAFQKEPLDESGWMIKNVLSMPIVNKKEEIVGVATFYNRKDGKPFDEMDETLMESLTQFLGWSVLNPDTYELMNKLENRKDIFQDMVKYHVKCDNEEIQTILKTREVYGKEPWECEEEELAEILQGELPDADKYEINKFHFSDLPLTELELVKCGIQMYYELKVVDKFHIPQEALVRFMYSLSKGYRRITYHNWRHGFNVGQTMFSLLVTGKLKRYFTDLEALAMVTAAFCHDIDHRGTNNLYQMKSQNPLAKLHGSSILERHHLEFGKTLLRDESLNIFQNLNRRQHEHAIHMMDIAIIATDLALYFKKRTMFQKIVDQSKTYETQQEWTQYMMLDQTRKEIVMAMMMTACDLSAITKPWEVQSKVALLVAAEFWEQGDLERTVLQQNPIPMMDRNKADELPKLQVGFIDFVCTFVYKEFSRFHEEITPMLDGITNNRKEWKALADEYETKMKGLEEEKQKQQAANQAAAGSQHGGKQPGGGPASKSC
T1 sequence (P23439 2-850 limits assumed): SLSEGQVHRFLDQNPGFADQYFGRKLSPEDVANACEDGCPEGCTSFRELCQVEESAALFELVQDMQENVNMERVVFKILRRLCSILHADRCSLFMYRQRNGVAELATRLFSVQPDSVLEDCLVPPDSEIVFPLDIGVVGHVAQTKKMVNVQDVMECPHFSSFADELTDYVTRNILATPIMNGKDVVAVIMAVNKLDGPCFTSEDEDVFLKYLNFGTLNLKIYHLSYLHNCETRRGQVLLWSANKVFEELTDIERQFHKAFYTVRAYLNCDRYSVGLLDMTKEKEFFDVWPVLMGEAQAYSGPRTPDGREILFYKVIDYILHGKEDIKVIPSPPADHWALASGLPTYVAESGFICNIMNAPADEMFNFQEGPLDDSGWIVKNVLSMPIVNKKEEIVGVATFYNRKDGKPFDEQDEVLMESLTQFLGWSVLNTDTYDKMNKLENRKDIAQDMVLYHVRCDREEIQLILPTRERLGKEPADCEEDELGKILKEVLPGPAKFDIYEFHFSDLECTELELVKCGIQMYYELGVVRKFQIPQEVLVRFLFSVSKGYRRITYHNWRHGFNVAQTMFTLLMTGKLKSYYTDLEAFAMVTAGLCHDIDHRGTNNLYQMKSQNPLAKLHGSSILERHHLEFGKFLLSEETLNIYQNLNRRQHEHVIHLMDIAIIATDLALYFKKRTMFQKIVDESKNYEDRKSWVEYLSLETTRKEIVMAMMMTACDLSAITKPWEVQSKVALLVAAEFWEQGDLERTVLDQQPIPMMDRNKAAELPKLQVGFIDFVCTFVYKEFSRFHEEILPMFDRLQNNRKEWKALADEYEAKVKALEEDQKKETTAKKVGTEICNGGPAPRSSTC
The assay can be described thus: PDE7 selectivity test (Ki value), Experimental Example 2: bovine PDE6. The assay is classed as biochemical. Conditions: Ki from IC50 by Cheng-Prusoff, read-out: PDE inhibition constant Ki, PDE6. As to the method: (§1) hPDE1A, hPDE2A, hPDE3A, hPDE4D, hPDE5A, and hPDE8B were purchased from SB Drug Discovery. hPDE7B was isolated by the same method as [Method for preparing samples 1], and hPDE9A, hPDE10A, and hPDE11A were isolated by the same method as hPDE7B, i.e., isolated from COS-7 cells transfected with plasmids encoding each PDE. PDE6 was purified and isolated from bovine retina (bovine PDE6).
(§2) Prior to the calculation of Ki value, Km value of each PDE against cAMP or cGMP was calculated. Each PDE diluted with an assay buffer so that it would have an appropriate enzyme activity, and six or more concentrations of cAMP or cGMP were reacted at room temperature for 60 minutes. Regarding PDE using cAMP as a substrate, PDELight (trademark) HTS cAMP phosphodiesterase Kit (Lonza) was used to measure a degradation product, 5′-AMP. Also, regarding PDE using cGMP as a substrate, […] of perchloric acid was added to the mixture to stop the reaction, and the resulting mixture was subjected to LC-MS/MS to measure the residual cGMP concentration. The amount of degraded substrate in each substrate concentration was calculated, the concentration of the added substrate was plotted on the horizontal axis, the amount of degraded substrate was plotted on the vertical axis, and Km value was calculated by non-linear regression on the basis of Michaelis-Menten equation. Km value (substrate) of each PDE was hPDE1A: 4.3 (cGMP), hPDE2A: 36 (cAMP), hPDE3A: 0.11 (cAMP), hPDE4D: 0.90 (cAMP), hPDE5A: 3.9 (cGMP), bovine PDE6:9.8 (cGMP), hPDE7B: 0.015 (cAMP), hPDE8B: 0.63 (cAMP), hPDE9A: 0.0037 (cGMP), hPDE10A: 0.051 (cAMP), and hPDE11A: 1.4 (cAMP) μmol/L, respectively.
(§3) Next, PDE inhibition assay of a compound was carried out using each PDE. The PDE inhibition assay was basically carried out by the same enzyme reaction method as [Assay procedure 1], and the degraded amount of cAMP or cGMP was measured by the same method as [Assay procedure 2]. In the assay, a concentration approximated to Km value of each PDE against cAMP or cGMP was used as a substrate concentration. Meanwhile, regarding hPDE5A, hPDE8B, and hPDE9A, IMAP (trademark) FP Phosphodiesterase Evaluation Assay Kit (Molecular Devices) was used to measure the degradation of FAM-cAMP or FAM-cGMP by fluorescence depolarization technique.
(§4) Each compound was evaluated at six or more concentrations with common ratio 10. Each inhibition rate was calculated according to <Method for data calculation 1>, and then each IC50 value was calculated by sigmoid regression. The resulting IC50 value was used in the following Cheng-Prusoff equation to calculate each Ki value. Ki=IC50/(1+[S]/Km), wherein [S] represents a substrate concentration used

Another assay has as its target T2, hPDE8B (Homo sapiens, UniProt O95263).
T2 construct: purchased SB Drug Discovery
The assay can be described thus: PDE7 selectivity test (Ki value), Experimental Example 2: hPDE8B. The assay is classed as biochemical. Conditions: Ki from IC50 by Cheng-Prusoff, read-out: PDE inhibition constant Ki, PDE8. As to the method:
as §1, §2, §3, §4

For orientation: Ki means a dissociation constant, usually derived from enzyme kinetics or from competition with a known ligand.

T2 sequence (O95263 whole entry): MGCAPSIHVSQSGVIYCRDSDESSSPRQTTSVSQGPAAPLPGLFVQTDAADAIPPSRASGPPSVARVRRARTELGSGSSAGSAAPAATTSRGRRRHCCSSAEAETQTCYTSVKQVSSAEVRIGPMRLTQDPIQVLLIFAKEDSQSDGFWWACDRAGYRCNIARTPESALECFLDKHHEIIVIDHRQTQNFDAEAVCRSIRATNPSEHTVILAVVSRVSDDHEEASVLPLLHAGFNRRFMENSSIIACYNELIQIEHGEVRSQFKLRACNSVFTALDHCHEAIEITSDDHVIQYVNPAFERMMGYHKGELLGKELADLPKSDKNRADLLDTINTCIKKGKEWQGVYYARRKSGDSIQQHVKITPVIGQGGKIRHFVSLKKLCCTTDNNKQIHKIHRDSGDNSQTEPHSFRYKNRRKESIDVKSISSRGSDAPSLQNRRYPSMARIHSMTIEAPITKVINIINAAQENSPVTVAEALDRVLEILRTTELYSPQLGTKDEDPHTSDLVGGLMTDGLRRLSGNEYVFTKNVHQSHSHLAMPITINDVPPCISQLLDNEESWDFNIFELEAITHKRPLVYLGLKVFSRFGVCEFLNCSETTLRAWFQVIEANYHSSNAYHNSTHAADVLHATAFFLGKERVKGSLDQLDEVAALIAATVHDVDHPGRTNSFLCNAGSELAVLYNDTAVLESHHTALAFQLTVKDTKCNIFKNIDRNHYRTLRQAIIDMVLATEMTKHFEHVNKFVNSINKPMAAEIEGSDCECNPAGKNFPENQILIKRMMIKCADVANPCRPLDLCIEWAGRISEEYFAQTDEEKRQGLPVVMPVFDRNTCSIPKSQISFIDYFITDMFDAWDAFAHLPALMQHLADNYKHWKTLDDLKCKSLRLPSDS

Take `C[C@@H]1CCC[C@H](c2nnc3c(N)nccn23)C1` [Example 204, 3-[(1S,3R)-3-methylcyclohexyl][1,2,4]triazolo[4,3-a]pyrazin-8-amine]: the inhibition constant (Ki) at bovine PDE6 is above 49000 nM; on hPDE8B, 1400 nM.
On the same counts, the results for `CC1CCCCC1n1nnc2c(N)ncnc21` (single isomer, unassigned) [Example 191, 3-(cis-2-methylcyclohexyl)-3H-[1,2,3]triazolo[4,5-d]pyrimidin-7-amine] are above 49000 nM and 5300 nM.
In the case of `Nc1nccn2c(C3CCCCC3)nnc12` [Example 141, 3-cyclohexyl[1,2,4]triazolo[4,3-a]pyrazin-8-amine], the Ki is above 4900 nM on bovine PDE6 and 1400 nM on hPDE8B.
In the case of `Nc1ncnc2c1nnn2C1CCCCC1` [Example 3, 3-cyclohexyl-3H-[1,2,3]triazolo[4,5-d]pyrimidin-7-amine], the inhibitory constant (Ki) was above 49000 nM on bovine PDE6 and 770 nM on hPDE8B.
Turning to `Cc1nc(N)c2nnn(C3CCCCC3)c2n1` [Example 4], the results for the inhibition constant Ki on bovine PDE6 and at hPDE8B were above 4900 nM and 85 nM, respectively.
